Experimental data from patent US12110287B2, “Heterocyclic derivatives as Nav1.7 and Nav1.8 blockers” (RaQualia Pharma Inc., priority 2018, dated 2024).

Columns and labels:
Nav1.7 [1] = target: T1, Nav1.7 (Homo sapiens, UniProt Q15858); experiment: Electrophysiology assay (whole cell patch clamp), affinity to inactivated state; assay type: cell-based; set-up: expressed in transfected cells; conditions: affinity to inactivated state (Kinact), read-out: activity (Ki) against Nav1.7
Procedure: Whole cell patch clamp recording is used to assess the efficacy or selectivity of Na (Sodium) channel blocker on human voltage gated sodium channels. Na channel expressing cells are dissociated by 0.05% Trypsin-EDTA or Accutase, and then seeded on cover glass for 2-24 hours.
Manual patch clamp recordings are conducted at rt using the voltage-clamp amplifier (Axon Instruments or HEKA electronik). Electrodes are pulled with P-97 electrode puller (Sutter Instrument). The electrode resistances are 1-3 MOhm when intercellular solution is filled. Currents are lowpass filtered between 2-5 kHz and digitally sampled at 10 kHz. […]
After whole-cell configuration is achieved, cell is monitored at least 10 minutes to allow cell dialysis with pipette solution. […]
Peak currents evoked by Test 1 and Test 2 pulses are sampled with Clampex (Axon Instruments) or Pulse+Pulse Fit (HEKA). Averaged peak currents under vehicle or test compounds are calculated from 3 data points at end of each condition.
Inhibitory effects (% inhibition) on peak currents at Test 1 or Test 2 pulse are plotted against test concentration and IC50 values at Test 1 (Closed IC50) or Test 2 (Inactivated IC50) are calculated with Hill equation, respectively. […]
After whole-cell configuration is achieved, the cell is monitored at least 10-15 minutes to allow cell dialysis with pipette solution. […]

Nav1.7 [2] = target: T1, Nav1.7; experiment: EFS-FRET assay; assay type: cell-based; set-up: expressed in transfected cells; host or cells: CHO (Chinese hamster ovary) cells; conditions: CHO cells expressing human Nav1.7 channels, read-out: IC50 against Nav1.7
Procedure: This screen is used to determine the effects of compounds on human Nav1.7 channels, utilizing electrical field stimulation (EFS) system in 96-well plate format on FDSS (Hamamatsu Photonics) platform. The changes of membrane potential are monitored with FRET dye pair, DiSBAC2(3) and PTS18.
CHO (Chinese hamster ovary) cells expressing human Nav1.7 channels are grown in T225 flasks, in a 5% CO2 humidified incubator to about 80% confluence. Media composition consists of HAM/F12 with Glutamax I, 10% FCS, 100 units/mF penicillin and 100 microgram/mF hygromycin.
• Seed each cell lines (1×10^5 cells/well) into 96-well plates prior to experimentation. • Incubate at 37° C. in 5% CO2 for 24 hours. • Wash each well with assay buffer (140 mM NaCl, 4.5 mM KCl, 10 mM D-Glucose, 2 mM CaCl2, 1 mM MgCl2, 10 mM HEPES, pH 7.4 adjusted with NaOH) twice. • Add 1st loading solution containing 10 microM PTS18 and 0.06% Pluronic F-127 in assay buffer. • Incubate the plate at rt in dark for 1 hour. • Remove 1st loading solution and add 2nd loading solution containing 12.5 microM DiSBAC2(3), 1.25 mM Xylene Fast Yellow and 0.0075% Pluronic F-127 in assay buffer. • Place the plate under the dark at rt for 25 minutes. • Add compound solutions into the assay plate. • Set the assay plate in FDSS and place an EFS device on the plate. • Measure EFS-induced fluorescent response by FDSS.
The data are analyzed and reported as normalized ratios of intensities measured at […]. The process of calculating these ratios is performed as follows:
This analysis is performed using a computerized specific program designed for FDSS generated data. Fluorescence ratio values are plotted using XLfit to determine an IC50 value for each compound.

T1 sequence (Q15858 whole entry): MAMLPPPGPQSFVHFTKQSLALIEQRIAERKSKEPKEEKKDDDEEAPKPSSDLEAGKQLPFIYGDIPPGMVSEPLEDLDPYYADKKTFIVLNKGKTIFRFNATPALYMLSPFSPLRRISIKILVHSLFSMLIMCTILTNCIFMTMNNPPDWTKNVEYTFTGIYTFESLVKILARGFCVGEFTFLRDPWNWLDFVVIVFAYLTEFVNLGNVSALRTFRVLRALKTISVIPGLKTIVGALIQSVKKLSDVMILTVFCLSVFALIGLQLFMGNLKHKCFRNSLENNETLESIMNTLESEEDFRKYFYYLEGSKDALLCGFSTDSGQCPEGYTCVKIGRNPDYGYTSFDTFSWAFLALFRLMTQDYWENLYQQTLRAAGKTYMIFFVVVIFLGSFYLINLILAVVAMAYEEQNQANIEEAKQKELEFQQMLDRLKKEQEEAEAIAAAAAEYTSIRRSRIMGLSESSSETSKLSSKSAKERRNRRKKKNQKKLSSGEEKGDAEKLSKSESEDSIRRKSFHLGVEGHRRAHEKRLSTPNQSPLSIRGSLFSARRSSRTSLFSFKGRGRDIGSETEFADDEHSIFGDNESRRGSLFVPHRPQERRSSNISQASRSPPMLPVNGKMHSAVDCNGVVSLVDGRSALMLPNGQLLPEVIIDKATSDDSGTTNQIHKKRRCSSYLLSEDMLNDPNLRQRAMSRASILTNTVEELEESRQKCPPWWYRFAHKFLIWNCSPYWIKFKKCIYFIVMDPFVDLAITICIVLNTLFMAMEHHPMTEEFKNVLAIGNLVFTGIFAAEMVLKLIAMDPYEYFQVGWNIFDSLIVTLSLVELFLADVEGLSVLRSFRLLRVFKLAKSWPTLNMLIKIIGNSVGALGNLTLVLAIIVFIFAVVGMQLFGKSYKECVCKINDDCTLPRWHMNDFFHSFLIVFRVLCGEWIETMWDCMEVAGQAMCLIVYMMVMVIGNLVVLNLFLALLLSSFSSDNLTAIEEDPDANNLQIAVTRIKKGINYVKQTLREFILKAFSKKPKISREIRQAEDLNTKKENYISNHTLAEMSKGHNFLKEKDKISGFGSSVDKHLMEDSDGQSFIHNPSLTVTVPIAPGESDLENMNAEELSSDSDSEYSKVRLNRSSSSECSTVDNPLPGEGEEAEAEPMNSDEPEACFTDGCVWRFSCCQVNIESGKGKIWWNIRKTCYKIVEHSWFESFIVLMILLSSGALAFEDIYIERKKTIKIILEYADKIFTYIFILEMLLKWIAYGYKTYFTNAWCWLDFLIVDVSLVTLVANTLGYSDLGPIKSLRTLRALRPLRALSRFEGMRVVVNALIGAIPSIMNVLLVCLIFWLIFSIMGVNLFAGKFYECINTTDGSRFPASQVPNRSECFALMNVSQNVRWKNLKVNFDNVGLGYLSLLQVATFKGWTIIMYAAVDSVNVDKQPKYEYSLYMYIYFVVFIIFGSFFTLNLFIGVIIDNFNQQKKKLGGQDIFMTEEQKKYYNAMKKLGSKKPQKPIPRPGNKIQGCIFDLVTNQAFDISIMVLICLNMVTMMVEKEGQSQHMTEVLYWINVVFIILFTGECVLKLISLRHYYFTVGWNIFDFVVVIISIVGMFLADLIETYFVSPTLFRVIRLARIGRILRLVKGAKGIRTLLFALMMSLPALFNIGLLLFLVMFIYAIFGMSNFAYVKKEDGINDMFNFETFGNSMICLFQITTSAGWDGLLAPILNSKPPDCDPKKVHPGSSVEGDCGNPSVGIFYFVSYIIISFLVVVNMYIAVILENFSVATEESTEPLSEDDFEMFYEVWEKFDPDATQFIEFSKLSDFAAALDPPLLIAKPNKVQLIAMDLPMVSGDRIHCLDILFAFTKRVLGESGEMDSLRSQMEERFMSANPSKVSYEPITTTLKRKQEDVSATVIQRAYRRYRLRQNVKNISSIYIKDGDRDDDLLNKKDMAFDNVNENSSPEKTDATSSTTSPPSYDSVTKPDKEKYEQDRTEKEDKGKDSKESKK

Ki (Nav1.7 [1]) [µM] | IC50 (Nav1.7 [2]) [µM] | SMILES
< 0.2 | < 0.5 | O=C(N[C@@H]1CCN(c2ncc(C(F)(F)F)cc2Cl)C1)c1ccnc(NC(=O)C2CC2)c1 [Example 9]
 | < 0.5 | CCC(=O)Nc1cc(C(=O)N[C@@H]2CCCN(c3ccc(OC(F)(F)F)cc3Cl)C2)ccn1 [Example 129]
 | < 0.5 | Cc1cc(C(=O)N[C@@H]2CCCN(c3ccc(OC(F)(F)F)cc3Cl)C2)nc(NC(=O)C2CC2)n1 [Example 132]
